# *1 amine or outer side, *2 acyl side, *3 side chain or, on linkers, in order; H or OH if unused. Where a SMILES comes first, the peptide text is derived from it. Bridges are numbered along the chain shown (N, C = ends). [ ]: non-standard residue; d: D form. The star is where a group is joined. 2Nal = N[C@@H](Cc1ccc2ccccc2c1)C(=O)O; AEF = NCCOc1ccc(C[C@H](N)C(=O)O)cc1; X1 = O=C(Cc1ccc(CN[*:1])cc1)[*:2]; 3Pal = N[C@@H](Cc1cccnc1)C(=O)O; αMeL = CC(C)C[C@](C)(N)C(=O)O; CH2COCH2 = O=C(C[*:1])C[*:2]; NMeS = CN[C@@H](CO)C(=O)O; Pyrrolidide = C1CCN(*)C1; Dab = NCC[C@H](N)C(=O)O; βAla = NCCC(=O)O
# Biological target: T1, human IL-23R (Homo sapiens, UniProt Q5VWK5)
# T1 sequence (Q5VWK5 22-629): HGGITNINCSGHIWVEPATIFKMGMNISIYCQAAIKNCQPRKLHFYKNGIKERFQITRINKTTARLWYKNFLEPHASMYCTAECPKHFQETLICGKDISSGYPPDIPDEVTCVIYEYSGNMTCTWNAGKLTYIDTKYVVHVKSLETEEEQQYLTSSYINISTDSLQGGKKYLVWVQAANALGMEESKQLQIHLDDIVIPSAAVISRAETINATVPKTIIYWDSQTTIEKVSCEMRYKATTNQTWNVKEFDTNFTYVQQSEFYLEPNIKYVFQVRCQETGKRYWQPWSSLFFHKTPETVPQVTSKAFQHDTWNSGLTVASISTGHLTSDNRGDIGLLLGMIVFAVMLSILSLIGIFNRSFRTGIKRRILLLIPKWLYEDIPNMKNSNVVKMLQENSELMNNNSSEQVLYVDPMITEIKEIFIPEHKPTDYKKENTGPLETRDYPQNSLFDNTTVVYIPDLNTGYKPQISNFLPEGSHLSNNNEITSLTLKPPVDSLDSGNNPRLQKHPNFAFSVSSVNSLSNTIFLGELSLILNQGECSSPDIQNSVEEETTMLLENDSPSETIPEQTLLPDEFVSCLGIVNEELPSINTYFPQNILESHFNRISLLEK
# Assay: biochemical
# Conditions: not given
# Text: The compound binding affinity for IL-23R was estimated by the ability of compounds to displace a fluorophore-labelled reference compound from the human IL-23R. The assay principle relies on Bioluminescence Resonance Energy Transfer (BRET) between a fluorophore-labelled reference compound binding to the IL-23R part of a fusion protein consisting of the IL-23R fused to a Nanoluc luciferase enzyme (Nanoluc). The Nanoluc is placed in the N-terminus in close proximity to the binding domain of the ligand. Upon close proximity between the fluorophore of the fluorophore-labelled compound and the Nanoluc of the fusion protein, bioluminescence energy generated from conversion of a Nanoluc substrate, is transferred to the fluorophore resulting in an increase in BRET. In presence of an unlabelled compound, the unlabelled compound displaces the fluorophore-labelled peptide from its binding site resulting in a decrease in BRET. The concentration for which half of the fluorophore-labelled peptide is displaced by the unlabelled compound depends on the affinity of the compound for the IL-23R, and is termed the IC50 concentration.
# The plasmid also contained a gene to confer resistance for the antibiotic hygromycin. A cell line stably expressing the Nluc-IL23R fusion protein was generated by transfection of HEK293 cells with the expression plasmid and selected with hygromycin for 3 weeks in Growth medium consisting of DMEM w/ Glutamax-I containing, 10% V/V FBS, 1% V/V P/S, 1 mM Sodium Pyruvate, and 1X NEAA, and 0.3 mg/mL hygromycin. The remaining cells were propagated and considered a stable expressing Nluc-IL23R fusion protein pool clone.
# Cells expressing the Nluc-IL23R fusion protein were expanded in Growth medium and membranes prepared by homogenization of a cell pellet from 18 T175 flasks (4 °C in subsequent steps). The cell pellet was lysed Tris 10 mM, 7.5, 1 mM EDTA and protease inhibitors (Complete, Roche) and homogenized using a 15 mL glass-dounce by 50 strokes. The homogenate was spun at spin @1500 rpm for 10 min, the supernatant transferred to SV-34 tubes and spun at 40000g for 20 min at 4 °C to pellet the crude membranes. The supernatant was then removed, the pellet resuspended in 5 mL buffer containing 50 mM HEPES pH 7.4, 5 mM EGTA, and 5 mM MgCl2, and homogenized. Aliquots of the resuspended and homogenized membranes containing the Nluc-IL23R fusion protein were stored at -80 °C until use.
# The plate was sealed with light impermeable plate seals, and incubated on an orbital shaker 400 rpm for 2 hours at room temperature. To determine the BRET ratio, the plate seal was removed and 25 µL of the Nanoluc substrate (Promega N1572) diluted 1:500 was added to each well and incubated for 1-2 minutes on an orbital shaker at 400 rpm. […] The BRET ratio was calculated as the fluorescence from the TAMRA/nanoluc bioluminescence.
# Compound potency (IC50) and maximal displacement (% displacement) were estimated by computer-aided curve fitting using a 4-parameter logistic (4PL) non-linear model. […]
# In this application, the inventors provide the data as IC50 values.
Structure (SMILES),% displacement (hIL-23R binding) [%],IC50 [nM]
"CC(C)C[C@]1(C)NC(=O)[C@H](Cc2ccc3ccccc3c2)NC(=O)[C@H](Cc2ccc(OCCN)cc2)NC(=O)[C@@H]2CCNC(=O)CC[C@H](NC(=O)[C@H](CO)NC(=O)Cc3ccc(cc3)CNC(=O)CC[C@@H](C(=O)NC[C@@H](N[C@@H](Cc3cccnc3)C(N)=O)C(F)(F)F)NC1=O)C(=O)N[C@@H](Cc1c[nH]c3ccccc13)C(=O)N[C@@H](CCC(N)=O)C(=O)N2 [Compound 16, [4-Aminomethyl-phenylacetyl](1c)*SE(2c)WQ[Dab](2c)[Y(2-aminoethoxy)][2-Nal][2-Me-Leu]E(1c)[{d}Gly-CF3][3-(3-Pyridyl)-Ala]-[NH2]]",,0.13
"CNC(=O)[C@H](Cc1cccnc1)NC(=O)[C@H](CCN)NC(=O)[C@@H]1CCC(=O)NCc2ccc(cc2)CC(=O)N(C)[C@@H](CO)C(=O)N[C@H]2CCC(=O)NCC[C@H](NC(=O)[C@H](CCC(N)=O)NC(=O)[C@H](Cc3c[nH]c4ccccc34)NC2=O)C(=O)N[C@@H](Cc2ccc(OCCN)cc2)C(=O)N[C@@H](Cc2ccc3ccccc3c2)C(=O)N[C@@](C)(CC(C)C)C(=O)N1 [Compound 18, [4-Aminomethyl-phenylacetyl](1c)*[N-Me-Ser]E(2c)WQ[Dab](2c)[Y(2-aminoethoxy)][2-Nal][2-Me-Leu]E(1c)[Dab][3-(3-Pyridyl)-Ala]-[NHMe]] ([X1][NMeS]EWQ[Dab][AEF][2Nal][αMeL]E[Dab][3Pal]-NHMe; lactam 3-6, N-10)",,0.015
"CNC(=O)[C@H](Cc1cncnc1)NC(=O)[C@H](CCN)NC(=O)[C@@H]1CCC(=O)NCc2ccc(cc2)CC(=O)N[C@@H](CO)C(=O)N[C@H]2CCC(=O)NCC[C@H](NC(=O)[C@H](CCC(N)=O)NC(=O)[C@H](Cc3c[nH]c4ccccc34)NC2=O)C(=O)N[C@@H](Cc2ccc(OCCN)cc2)C(=O)N[C@@H](Cc2ccc3ccccc3c2)C(=O)N[C@@](C)(CC(C)C)C(=O)N1 [Compound 19, [4-Aminomethyl-phenylacetyl](1c)*SE(2c)WQ[Dab](2c)[Y(2-aminoethoxy)][2-Nal][2-Me-Leu]E(1c)[Dab][3-(3,5-Pyrimidyl)-Ala]-[NHMe]]",103,0.054
"CNC(=O)[C@H](Cc1cccnc1)NC(=O)[C@H](CCN)NC(=O)[C@@H]1CCC(=O)NCc2ccc(cc2)CC(=O)N[C@@H](CO)C(=O)N[C@H]2CCC(=O)NCC[C@H](NC(=O)[C@H](Cc3ccccc3)NC(=O)[C@H](Cc3c[nH]c4ccccc34)NC2=O)C(=O)N[C@@H](Cc2ccc(OCCN)cc2)C(=O)N[C@@H](Cc2ccc3ccccc3c2)C(=O)N[C@@](C)(CC(C)C)C(=O)N1 [Compound 23, [4-Aminomethyl-phenylacetyl](1c)*SE(2c)WF[Dab](2c)[Y(2-aminoethoxy)][2-Nal][2-Me-Leu]E(1c)[Dab][3-(3-Pyridyl)-Ala]-[NHMe]] ([X1]SEWF[Dab][AEF][2Nal][αMeL]E[Dab][3Pal]-NHMe; lactam 3-6, N-10)",97,
"CNC(=O)[C@H](Cc1cccnc1)NC(=O)[C@H](CCN)NC(=O)[C@@H]1CCC(=O)NCc2ccc(cc2)CC(=O)N[C@@H](CO)C(=O)N[C@H]2CCC(=O)NCC[C@H](NC(=O)[C@H](CCCCNC(C)=O)NC(=O)[C@H](Cc3c[nH]c4ccccc34)NC2=O)C(=O)N[C@@H](Cc2ccc(OCCN)cc2)C(=O)N[C@@H](Cc2ccc3ccccc3c2)C(=O)N[C@@](C)(CC(C)C)C(=O)N1 [Compound 24, [4-Aminomethyl-phenylacetyl](1c)*SE(2c)W[K(Ac)][Dab](2c)[Y(2-aminoethoxy)][2-Nal][2-Me-Leu]E(1c)[Dab][3-(3-Pyridyl)-Ala]-[NHMe]] ([X1]SEWK(Ac)[Dab][AEF][2Nal][αMeL]E[Dab][3Pal]-NHMe; lactam 3-6, N-10)",97,0.014
"CNC(=O)[C@H](Cc1cccnc1)NC(=O)[C@H](CCN)NC(=O)[C@@H]1CCC(=O)NCc2ccc(cc2)CC(=O)N[C@@H](CO)C(=O)N[C@H]2CCC(=O)NCC[C@H](NC(=O)[C@H](CCC(=O)N3CCCC3)NC(=O)[C@H](Cc3c[nH]c4ccccc34)NC2=O)C(=O)N[C@@H](Cc2ccc(OCCN)cc2)C(=O)N[C@@H](Cc2ccc3ccccc3c2)C(=O)N[C@@](C)(CC(C)C)C(=O)N1 [Compound 27, [4-Aminomethyl-phenylacetyl](1c)*SE(2c)W[Q(pyrrolidin)][Dab](2c)[Y(2-aminoethoxy)][2-Nal][2-Me-Leu]E(1c)[Dab][3-(3-Pyridyl)-Ala]-[NHMe]] ([X1]SEWE(Pyrrolidide)[Dab][AEF][2Nal][αMeL]E[Dab][3Pal]-NHMe; lactam 3-6, N-10)",97,

# Second part, the compound after the results:
% displacement (hIL-23R binding) [%],IC50 [nM],Structure (SMILES)
105,5.4,"CC(C)C[C@]1(C)NC(=O)[C@H](Cc2ccc3ccccc3c2)NC(=O)[C@H](Cc2ccc(OCCN)cc2)NC(=O)[C@@H]2CSCC(=O)CSC[C@H](NC(=O)[C@H](CO)NC(=O)[C@H](Cc3cccnc3)NC(=O)CCNC(=O)CC[C@@H](C(=O)N[C@H](CCCNC(=N)N)C(N)=O)NC1=O)C(=O)N[C@@H](Cc1c[nH]c3ccccc13)C(=O)N[C@@H](CCC(N)=O)C(=O)N2 [Compound 1, [3-Aminopropanoyl](4c)*[3-(3-Pyridyl)-Ala]SC(2a)WQC(2a)[Y(2-aminoethoxy)][2-Nal][2-Me-Leu]E(4c)[{d}R]-[NH2]] ([βAla][3Pal]SCWQC[AEF][2Nal][αMeL]E[dR]-NH2; linker 4-7 via CH2COCH2; lactam N-11)"
103,2.9,"CC(C)C[C@]1(C)NC(=O)[C@H](Cc2ccc3ccccc3c2)NC(=O)[C@H](Cc2ccc(OCCN)cc2)NC(=O)[C@@H]2CSCC(=O)CSC[C@H](NC(=O)[C@H](CO)NC(=O)CCNC(=O)[C@H](Cc3cccnc3)NC(=O)CC[C@@H](C(=O)N[C@H](CCCNC(=N)N)C(N)=O)NC1=O)C(=O)N[C@@H](Cc1c[nH]c3ccccc13)C(=O)N[C@@H](CCC(N)=O)C(=O)N2 [Compound 2, [3-(3-Pyridyl)-Ala](4c)*[3-Aminopropanoyl]SC(2a)WQC(2a)[Y(2-aminoethoxy)][2-Nal][2-Me-Leu]E(4c)[{d}R]-[NH2]] ([3Pal][βAla]SCWQC[AEF][2Nal][αMeL]E[dR]-NH2; linker 4-7 via CH2COCH2; lactam N-11)"
98,,"CC(C)C[C@]1(C)NC(=O)[C@H](Cc2ccc3ccccc3c2)NC(=O)[C@H](Cc2ccc(OCCN)cc2)NC(=O)[C@@H]2CCNC(=O)CC[C@H](NC(=O)[C@H](CO)NC(=O)Cc3ccc(cc3)CNC(=O)CC[C@@H](C(=O)NC[C@H](N[C@@H](Cc3cccnc3)C(N)=O)C(F)(F)F)NC1=O)C(=O)N[C@@H](Cc1c[nH]c3ccccc13)C(=O)N[C@@H](CCC(N)=O)C(=O)N2 [Compound 17, [4-Aminomethyl-phenylacetyl](1c)*SE(2c)WQ[Dab](2c)[Y(2-aminoethoxy)][2-Nal][2-Me-Leu]E(1c)[Gly-CF3][3-(3-Pyridyl)-Ala]-[NH2]]"

# Same assay, conditions: read-out: % displacement (hIL-23R binding)
row,Emax [%],Structure (SMILES)
1,101,"CC(C)C[C@]1(C)NC(=O)[C@H](Cc2ccc3ccccc3c2)NC(=O)[C@H](Cc2ccc(OCCN)cc2)NC(=O)[C@@H]2CCNC(=O)CC[C@H](NC(=O)[C@H](CO)NC(=O)Cc3ccc(cc3)CNC(=O)CC[C@@H](C(=O)NC[C@@H](N[C@@H](Cc3cccnc3)C(N)=O)C(F)(F)F)NC1=O)C(=O)N[C@@H](Cc1c[nH]c3ccccc13)C(=O)N[C@@H](CCC(N)=O)C(=O)N2 [Compound 16, [4-Aminomethyl-phenylacetyl](1c)*SE(2c)WQ[Dab](2c)[Y(2-aminoethoxy)][2-Nal][2-Me-Leu]E(1c)[{d}Gly-CF3][3-(3-Pyridyl)-Ala]-[NH2]]"
2,96,"CNC(=O)[C@H](Cc1cccnc1)NC(=O)[C@H](CCN)NC(=O)[C@@H]1CCC(=O)NCc2ccc(cc2)CC(=O)N(C)[C@@H](CO)C(=O)N[C@H]2CCC(=O)NCC[C@H](NC(=O)[C@H](CCC(N)=O)NC(=O)[C@H](Cc3c[nH]c4ccccc34)NC2=O)C(=O)N[C@@H](Cc2ccc(OCCN)cc2)C(=O)N[C@@H](Cc2ccc3ccccc3c2)C(=O)N[C@@](C)(CC(C)C)C(=O)N1 [Compound 18, [4-Aminomethyl-phenylacetyl](1c)*[N-Me-Ser]E(2c)WQ[Dab](2c)[Y(2-aminoethoxy)][2-Nal][2-Me-Leu]E(1c)[Dab][3-(3-Pyridyl)-Ala]-[NHMe]] ([X1][NMeS]EWQ[Dab][AEF][2Nal][αMeL]E[Dab][3Pal]-NHMe; lactam 3-6, N-10)"
3,96,"CNC(=O)[C@H](Cc1cccnc1)NC(=O)[C@H](CCN)NC(=O)[C@@H]1CCC(=O)NCc2ccc(cc2)CC(=O)N[C@@H](CO)C(=O)N[C@H]2CCC(=O)NCC[C@H](NC(=O)[C@H](C)NC(=O)[C@H](Cc3c[nH]c4ccccc34)NC2=O)C(=O)N[C@@H](Cc2ccc(OCCN)cc2)C(=O)N[C@@H](Cc2ccc3ccccc3c2)C(=O)N[C@@](C)(CC(C)C)C(=O)N1 [Compound 22, [4-Aminomethyl-phenylacetyl](1c)*SE(2c)WA[Dab](2c)[Y(2-aminoethoxy)][2-Nal][2-Me-Leu]E(1c)[Dab][3-(3-Pyridyl)-Ala]-[NHMe]] ([X1]SEWA[Dab][AEF][2Nal][αMeL]E[Dab][3Pal]-NHMe; lactam 3-6, N-10)"

# From EP4471049A1 (Zealand Pharma A/S, priority 2023, dated 2024)
